# Data: ChEMBL document CHEMBL1149255, “An in silico approach to discovering novel inhibitors of human sirtuin type 2” (J Med Chem, 2004)
# Target: T1, NAD-dependent protein deacetylase sirtuin-2 (Homo sapiens, UniProt Q8IXJ6)
# T1 sequence (Q8IXJ6 whole entry): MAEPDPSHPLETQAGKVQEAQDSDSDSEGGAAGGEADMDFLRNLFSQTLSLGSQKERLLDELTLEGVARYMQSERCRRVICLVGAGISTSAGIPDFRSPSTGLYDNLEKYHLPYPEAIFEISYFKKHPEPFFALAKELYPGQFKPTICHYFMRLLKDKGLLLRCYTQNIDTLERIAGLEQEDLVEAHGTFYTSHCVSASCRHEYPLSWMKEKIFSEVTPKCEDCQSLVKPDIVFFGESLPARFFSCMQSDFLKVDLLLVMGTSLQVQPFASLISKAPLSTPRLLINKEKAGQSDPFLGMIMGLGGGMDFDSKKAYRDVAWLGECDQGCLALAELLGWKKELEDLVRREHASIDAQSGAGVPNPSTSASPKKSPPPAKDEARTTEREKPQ
# Assay: Inhibition of human recombinant GST-tagged SIRT2 by histone deacetylase assay
row,IC50 [µM],Structure (SMILES)
1,74.3,Cc1ncc(CSc2ccccc2/N=C/c2cc(Cl)cc(Cl)c2O)c(CO)c1O
2,> 1000,Oc1ccccc1/C=N/c1ccc(OCCCCOc2ccc(/N=C/c3ccccc3O)cc2)cc1
3,> 1000,O=C(O)/C=C/C(=O)Nc1cccc(NC(=O)c2ccccc2O)c1
4,> 1000,Oc1ccccc1/C=N/c1ccc(OCCCOc2ccc(/N=C/c3ccccc3O)cc2)cc1
5,> 1000,O=C(O)CCCCOc1ccc2oc3ccccc3c(=O)c2c1
6,> 300,O=C(Nc1ccc(COc2ccccc2)cc1)Nc1cccc(C(=O)O)c1
7,> 1000,CC(C)(C)OC(=O)NC(Cc1ccccc1)C(=O)OCc1ccc(CC(=O)O)cc1 (stereo not given)
8,> 1000,COc1cc(NC(=O)c2ccccc2)c(C)cc1NC(=O)CC(CC(=O)O)c1ccccc1 (stereo not given)
9,> 1000,CN(CCO)c1ccc(C(=O)c2ccc(N(C)CCO)cc2)cc1
10,> 1000,Oc1ccc(/C=N/c2ccc(Cc3ccc(/N=C/c4ccc(O)c(O)c4)cc3)cc2)cc1O
11,> 1000,O=C(O)CSCC(=O)N1CCN(c2cc(C(F)(F)F)nc3ccccc23)CC1
12,> 300,O=c1cc(CSc2n[nH]c(=O)n2C2Cc3ccccc3C2)c2ccc(O)cc2o1
13,56.7,O=C1c2ccccc2C(=O)c2c(NCCc3ccc(O)cc3)ccc(NCCc3ccc(O)cc3)c21
14,> 300,Oc1ccc(CCc2nnc(S)n2-c2ccc(Cl)cc2)cc1
15,> 1000,O=C1c2cccc3c(SCCO)ccc(c23)C(=O)N1CCc1ccccn1
